In the supplement of paper PMC10307832:

Experiments:
Experiment in all cases: relative viability (nuclei count vs DMSO), 5 days (fraction); higher = more cells survive
[1] = compound: C[C@@H](C(=O)N[C@@H](C1CCCCC1)C(=O)N2CCC[C@H]2C(=O)N[C@@H]3[C@@H](CC4=CC=CC=C34)OCC#CC#CCO[C@@H]5CC6=CC=CC=C6[C@@H]5NC(=O)[C@@H]7CCCN7C(=O)[C@H](C8CCCCC8)NC(=O)[C@H](C)NC)NC [AZD5582] + C[C@]1(O)C[C@@H](c2nc(-c3ccc4ccc(-c5ccccc5)nc4c3)c3c(N)nccn32)C1 [Linsitinib] (partner 1 µM)
How it was run: (§1)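 Lung cancer cell lines, seeded in 1536-well plates, were treated the following day by pin tool with a single drug or with five library-drug doses (not always all listed) in √10 steps on top of a fixed anchor-drug dose. Cells were fixed and nuclei stained in one step after 5 days, and nuclei were counted. Relative viability is the nuclei count for treated wells divided by that for vehicle wells, reported as medians of duplicate plates.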

[2] = compound: C[C@@H](C(=O)N[C@@H](C1CCCCC1)C(=O)N2CCC[C@H]2C(=O)N[C@@H]3[C@@H](CC4=CC=CC=C34)OCC#CC#CCO[C@@H]5CC6=CC=CC=C6[C@@H]5NC(=O)[C@@H]7CCCN7C(=O)[C@H](C8CCCCC8)NC(=O)[C@H](C)NC)NC [AZD5582] + O=C(c1cc(Cc2n[nH]c(=O)c3ccccc23)ccc1F)N1CCN(C(=O)C2CC2)CC1 [Olaparib] (partner 8 µM)
How it was run: as §1

[3] = compound: Cn1nnc2c(C(N)=O)ncn2c1=O [Temozolomide] + O=C(c1cc(Cc2n[nH]c(=O)c3ccccc23)ccc1F)N1CCN(C(=O)C2CC2)CC1 [Olaparib] (partner 8 µM)
How it was run: as §1

[4] = compound: C[C@@H](C(=O)N[C@@H](C1CCCCC1)C(=O)N2CCC[C@H]2C(=O)N[C@@H]3[C@@H](CC4=CC=CC=C34)OCC#CC#CCO[C@@H]5CC6=CC=CC=C6[C@@H]5NC(=O)[C@@H]7CCCN7C(=O)[C@H](C8CCCCC8)NC(=O)[C@H](C)NC)NC [AZD5582] + Cc1nc(NC(=O)N2CCC[C@H]2C(N)=O)sc1-c1ccnc(C(C)(C)C(F)(F)F)c1 [Alpelisib] (partner 2 µM)
How it was run: as §1

[5] = compound: C[C@@H](C(=O)N[C@@H](C1CCCCC1)C(=O)N2CCC[C@H]2C(=O)N[C@@H]3[C@@H](CC4=CC=CC=C34)OCC#CC#CCO[C@@H]5CC6=CC=CC=C6[C@@H]5NC(=O)[C@@H]7CCCN7C(=O)[C@H](C8CCCCC8)NC(=O)[C@H](C)NC)NC [AZD5582] + CC1(C)CCC(c2ccc(Cl)cc2)=C(CN2CCN(c3ccc(C(=O)NS(=O)(=O)c4ccc(N[C@H](CCN5CCOCC5)CSc5ccccc5)c(S(=O)(=O)C(F)(F)F)c4)cc3)CC2)C1 [Navitoclax] (partner 0.5 µM)
How it was run: as §1

## NCI-H1703
[1]; first compound 0.005 µM
  relative viability: 0.666
[1]; first compound 0.01581 µM
  relative viability: 1.02
[1]; first compound 0.05 µM
  relative viability: 0.44
[2]; first compound 0.005 µM
  relative viability: 0.413
[2]; first compound 0.01581 µM
  relative viability: 0.487
[2]; first compound 0.05 µM
  relative viability: 0.54
[3]; first compound 0.2 µM
  relative viability: 0.497
[3]; first compound 0.6325 µM
  relative viability: 0.43
[3]; first compound 2 µM
  relative viability: 0.469
[3]; first compound 6.325 µM
  relative viability: 0.405
[3]; first compound 20 µM
  relative viability: 0.448
[4]; first compound 0.001581 µM
  relative viability: 0.208
[4]; first compound 0.005 µM
  relative viability: 0.323
[4]; first compound 0.01581 µM
  relative viability: 0.358
[4]; first compound 0.05 µM
  relative viability: 0.255
[5]; first compound 0.001581 µM
  relative viability: 0.874
[5]; first compound 0.005 µM
  relative viability: 0.807
[5]; first compound 0.01581 µM
  relative viability: 1.03
[5]; first compound 0.05 µM
  relative viability: 0.557
